US20030109537A1, “Methods and materials for treating bone conditions” (priority 2001, published 2003)

Test system: PDGF-A mRNA
Experiment: RNase protection assay of steady state mRNA levels
Format: in vivo, rat
Protocol: Induction of parathyroid bone disease. Three month-old female Sprague-Dawley rats (Harlan Sprague-Dawley, Inc., Indianapolis, Ind.) were randomly divided into 3 groups, with 5 rats per group. In group 1 (pulsatile or intermittent PTH), each rat received 80 μg/kg/day human PTH (1-34) (hPTH) in vehicle (150 mM NaCl, 1 mM HCl and 2% heat-inactivated rat serum) by subcutaneous (s.c.) injection once daily for 7 days. In group 2 (vehicle), an osmotic pump (Alza Corp., Mountainview, Calif.) that delivered vehicle alone at a rate of 1 μl/hr for 7 days was implanted in each rat. In group 3 (continuous PTH), an osmotic pump that delivered 40 μg/kg/day hPTH at a rate of 1 μl/hr for 7 days was implanted in each rat. On day 8, all rats were anesthetized with ketamine (50 mg/kg): xylazine HCl (5 mg/kg) and sacrificed by decapitation. Both tibiae were removed from each rat. Right tibiae were fixed by immersion in 70% ethanol then processed for bone histology to verify the appearance of peritrabecular fibrosis. Left tibiae were frozen in liquid N2 and stored at −80° C. until processed for RNA isolation.
Isolation of RNA. Frozen proximal tibial metaphyses were individually homogenized in guanidine isothiocyanate using a Spex freezer mill (Industries, Inc., Edison, N.J.). Total RNA was extracted from the homogenate using a modified organic solvent method. See Chomczynski et al., Anal. Biochem., 162:156-159 (1987). Isolated RNA yields were determined spectrophotometrically at 260 nm using standard methods.
RNase protection assay. Steady state mRNA levels for PDGF-A and other growth factors were determined using an RNase protection assay kit according to the manufacturer's protocol (Pharmingen, San Diego, Calif.). Quantitation of protected RNA fragments was performed by PhosphoImager analyses and normalized to glyceraldehyde-3-phosphate dehydrogenase (GAPDH) and the ribosomal structural protein L32.
RNase protection assays were performed as described in Example 1, for PDGF-A, BMP-1, BMP-6, BMP-3, and TGF-β1 to verify the microarray data. […]

PTH-induced regulation of mRNA levels for BMP-1, -3, and -6, as well as TGF-β (RNase protection assay verifying microarray data): confirmed
increase in the mRNA levels for PDGF-A (continuous PTH, rat tibial metaphysis, RNase protection assay, normalized to L32): 3.3 fold
effect on steady state mRNA levels for PDGF-A (pulsatile PTH, rat tibial metaphysis, RNase protection assay): no effect
Substance: human PTH (1-34)
